Experimental data: patent US4439460A, “Dipeptide sweetener sulfate and sulfonate salts” (G. D. Searle & Co., priority 1982, dated 1984)
Where a SMILES comes first, the peptide text is derived from it.

Key:
[1] = Rate of dissolution studies in beverage media; format: physicochemical; conditions: for Media Dissolution Times, medium 4: ambient temperature coffee (80 ml); for Media Dissolution Times, medium 4 / Media Dissolution Times, medium 2 / Media Dissolution Times, medium 3: with stirring; for Media Dissolution Times, medium 4 / Media Dissolution Times, medium 1 / Media Dissolution Times, medium 2 / Media Dissolution Times, medium 3: salt equimolar with 57 mg APM; for Media Dissolution Times, medium 1: refrigerated carbonated water (240 ml), without stirring; for Media Dissolution Times, medium 2: refrigerated lemonade with no sugar (240 ml); for Media Dissolution Times, medium 3: refrigerated coffee (80 ml)
Method: Samples of the salts of Examples 1, 2 and the APM hydrochloride and corresponding bisulfate and dihydrogen phosphate salts were employed to determine relative dissolution rates in beverage media. The amount of salt used in each instance was calculated to be equimolar with 57 mg of APM. The tests were conducted in four types of liquid beverage media; (1) refrigerated carbonated water (240 ml), (2) refrigerated lemonade without sugar (240 ml), (3) refrigerated coffee (80 ml), (4) coffee at ambient temperature (80 ml). The dissolution rates in medium 1 were measured without stirring and the rates in 2, 3 and 4 were measured with stirring. Dissolution was deemed complete when solid particles or a cloudy appearing medium were no longer present.

[2] = Thermal stability examination: oven at 170° C., HPLC analysis; format: physicochemical; conditions: for degradation: after seven, fifteen or twenty-five minutes heating at about 170° C.; for % Degradation, 7 Minutes (170° C.) / % Degradation, 15 Minutes (170° C.) / Physical Appearance after 25 Minutes at 170° C. / % Degradation, 25 Minutes (170° C.): oven 170° C.; for % Degradation, 7 Minutes (170° C.) / % Degradation, 15 Minutes (170° C.) / % Degradation, 25 Minutes (170° C.): HPLC
Method: Samples of the salts of Examples 1 and 2 having weights equivalent to about 40 mg of APM and reference samples (40 mg) of free base aspartylphenylalanine methyl ester (APM) and the corresponding hydrochloride dihydrogen phosphate (H2 PO4) and bisulfate (HSO4) salts having weights equivalent to about 40 mg APM were placed in individual 10 ml beakers and put in an oven pre-heated to 170° C. The samples were allowed to bake for predetermined times (7, 15 and 25 minutes) after which they were removed from the oven and analyzed by HPLC using the foregoing HPLC methods.

[3] = Thermal stability studies in baked cake: HPLC of core samples; format: physicochemical; conditions: for sweetener recovery: typical cake test, baked at 350° Fahrenheit for about thirty to forty-five minutes
Method: In this test sweetened yellow cakes are prepared following well-known procedures and using the appropriate ingredients but substituting dipeptide sweetener for sugar. Use of examples of salts of the invention and reference dipeptides and salts such as the hydrochloride will produce eight-inch yellow cakes which are ready for sweetener content comparison. The cakes are typically baked at 350° Fahrenheit (about 175° C.) for about thirty to forty-five minutes. Taking core sections of the sample cakes and analyzing for dipeptide sweetener content allows determination of the percent degradation of the form of the dipeptide sweetener used. In a typical thermal stability cake test, a cake baked with the sulfate salt of the invention will have about […] more dipeptide sweetener in it than a cake baked with the hydrochloride salt; compare, for example, about 34 percent sweetener recovery for the sulfate with about 25 percent for the hydrochloride.
(§1) Yellow cakes were baked following a standard recipe, but substituting a dipeptide sweetener or its salt and Maltrin M-100 (a modified maltodextrin starch bulking agent) for sugar. The liquid ingredients were creamed together then folded into a sifted mixture of the dry ingredients. The resulting dough was placed in a greased 8-inch cake pan and baked at 350° for 40 minutes. Three cakes were baked in this manner; cake 1 contained (APM-H)2 SO4, cake 2 contained APM-HCl, cake 3 contained APM.
The liquid ingredients included milk (193 g), shortening (54 g), egg (53 g, 1 egg), vanilla (3.6 g); the dry ingredients included flour (167 g), baking powder (6.9 g), salt (3.4 g), maltrin M-100 (126.5 g) dipeptide sweetener salt: (APM-H)2 SO4 (cake 1) (1.2 g), APM-HCl (cake 2) (1.2 g), APM (cake 3) (1.0 g).
Core samples were taken from each of the three cakes and the samples were analyzed by HPLC methods as described in Example 1.

[4] = Shelf life determination: accelerated storage, HPLC assay; format: physicochemical
Method: Two sets of samples of the APM sulfate salt of Example 1, APM hydrochloride and APM each having a weight equivalent to […] APM were placed in ovens which contained an open beaker of water. The first set of samples was heated at 70° and 100 percent humidity for 14.7 days. The second set of samples was heated at 85° and atmospheric humidity for 14.7 days. The samples were periodically analyzed by the HPLC method as described above in order to determine percent decomposition.

[5] = Taste of baked dipeptide sweetened yellow cakes; conditions: single blind conditions
Method: A taste test of the baked dipeptide sweetened yellow cakes can also be conducted under standard single blind conditions.
as §1

Row | SMILES | Media Dissolution Times, medium 4 [1] [s] | Media Dissolution Times, medium 1 [1] [s] | Media Dissolution Times, medium 2 [1] | degradation [2] | % Degradation, 7 Minutes (170° C.) [2] [%] | % Degradation, 15 Minutes (170° C.) [2] [%] | Physical Appearance after 25 Minutes at 170° C. [2] | % Degradation, 25 Minutes (170° C.) [2] [%] | Media Dissolution Times, medium 3 [1] [s] | HPLC Assay (% composition) APM, 6.8 days ([4]; 70°, 100 percent humidity) [%] | APM % Initial (APM remaining after 14.7 days relative to the initial APM) ([4]; 70°, 100 percent humidity) [%] | HPLC Assay (% composition) AP, 14.7 days ([4]; 70°, 100 percent humidity) | HPLC Assay (% composition) APM, 14.7 days ([4]; 70°, 100 percent humidity) [%] | HPLC Assay (% composition) APM, 6.8 days ([4]; 85° C., atmospheric humidity) [%] | HPLC Assay (% composition) DKP, 6.8 days ([4]; 85° C., atmospheric humidity) [%] | APM % Initial (APM remaining after 14.7 days relative to the initial APM) ([4]; 85° C., atmospheric humidity) [%] | HPLC Assay (% composition) AP, 14.7 days ([4]; 85° C., atmospheric humidity) | HPLC Assay (% composition) APM, 14.7 days ([4]; 85° C., atmospheric humidity) [%] | HPLC Assay (% composition) DKP, 14.7 days ([4]; 85° C., atmospheric humidity) | HPLC Assay (% composition) APM, Initial ([4]; initial, before storage) [%] | other results
1 | COC(=O)[C@H](Cc1ccccc1)NC(=O)[C@@H](N)CC(=O)O.CS(=O)(=O)O [Ex. 2] (H-Asp-Phe-OMe) | 167 | 168 | 250 s | about 30% | 0.0 | 0.5 | off white powder | 28.0 | – | – | – | – | – | – | – | – | – | – | – | – | –
2 | COC(=O)[C@H](Cc1ccccc1)NC(=O)[C@@H](N)CC(=O)O.Cl [B, aspartylphenylalanine methyl ester hydrochloride] (H-Asp-Phe-OMe) | 90 | 120 | 52 s | at least 45% | 2 | 8.5 | melted, light-brown | 44.7 | 94 | 77.7 | 93.6 | .36% | 75.1 | 62.1 | 4.0 | 57.3 | 1.6% | 46.0 | 3.2% | 80.2 | dissolution of a sweetening amount in refrigerated lemonade [1]: require significant time and stirring to dissolve; sweetener recovery [3]: about 25%; HPLC Assay (% composition) AP, 6.8 days ([4]; 70°, 100 percent humidity): .33%; HPLC Assay (% composition) DKP, 6.8 days ([4]; 70°, 100 percent humidity): .25%; HPLC Assay (% composition) DKP, 14.7 days ([4]; 70°, 100 percent humidity): .60%; HPLC Assay (% composition) AP, 6.8 days ([4]; 85° C., atmospheric humidity): 1.1%
3 | COC(=O)[C@H](Cc1ccccc1)NC(=O)[C@@H](N)CC(=O)O.O=P(O)(O)O [D] (H-Asp-Phe-OMe) | 600 | – | – | – | 0.1 | 60.6 | yellow powder | 86.6 | – | – | – | – | – | – | – | – | – | – | – | – | –
4 | COC(=O)[C@H](Cc1ccccc1)NC(=O)[C@@H](N)CC(=O)O [A, aspartylphenylalanine methyl ester] (H-Asp-Phe-OMe) | – | – | – | ≤ 85% | 0 | 22.2 | light-gray material | 87.6 | – | 95.3 | 95.9 | 0.21% | 92.6 | 95.2 | 1.6 | 94.9 | .20% | 91.7 | 2.0% | 96.6 | HPLC Assay (% composition) DKP, 6.8 days ([4]; 70°, 100 percent humidity): 1.1%; HPLC Assay (% composition) DKP, 14.7 days ([4]; 70°, 100 percent humidity): 1.2%; HPLC Assay (% composition) DKP, Initial ([4]; initial, before storage): 1.0%; cake sweetness, panel taste testing [5]: little sweetness and a flat taste
5 | COC(=O)[C@H](Cc1ccccc1)NC(=O)[C@@H](N)CC(=O)O.O=S(=O)(O)O [C, aspartylphenylalanine methyl ester bisulfate] (H-Asp-Phe-OMe) | 330 | – | – | ≤ 85% | 62.8 | 78.2 | melted colorless | 89.2 | – | – | – | – | – | – | – | – | – | – | – | – | –
6 | COC(=O)[C@H](Cc1ccccc1)NC(=O)[C@@H](N)CC(=O)O.COC(=O)[C@H](Cc1ccccc1)NC(=O)[C@@H](N)CC(=O)O.O=S(=O)(O)O [Ex. 1, Bis(hydrogen aspartylphenylalanine methyl ester) sulfate] (H-Asp-Phe-OMe) | 22 | 22 | About 0 seconds | less than 10% | 1.3 | 0 | white cryst. powder | 5.5 | 24 | 83.9 | 96.7 | .20% | 82.1 | 83.0 | 0.15 | 95.4 | .20% | 80.9 | .08% | 84.8 | dissolution rate relative to the corresponding hydrochloride salt [1]: at least approximately five to six times faster; dissolution of a sweetening amount in refrigerated lemonade [1]: completely dissolve in refrigerated lemonade without stirring; sweetener recovery [3]: about 34%; more dipeptide sweetener in cake than a cake baked with the hydrochloride salt ([3]; typical thermal stability cake test): about 50%; degradation in shelf life stability tests ([4]; about 85° for about 15 days or 70° for about 15 days at 100 percent humidity): less degradation than the hydrochloride salt; cake sweetness, panel taste testing [5]: approximately equal to that of sugar
